{
  "source": "paper PMC12750388",
  "about": "“Coumarin-1,2,3-Triazole Conjugates as Molecular Scaffolds for the Selective Induction of ROS-Driven Apoptosis in Cancer Cells in the Development of Pyruvate Kinase M2 Inhibitors” (ACS Omega, 2025)",
  "key": {"[1]": {"system": "Primary Gingival Fibroblast", "assay": "MTT cell viability assay, normal cells", "type": "cell-based, human", "description": "The viability of SCC cell lines and primary human fibroblast cells was evaluated using the MTT assay to determine half maximal inhibitory concentration (IC50). Briefly, cells were grown in triplicate in 96-well plates (5 × 10^3 cells/well) until confluence. Then the medium was removed, fresh medium was added, and the cells were returned to the incubator in the presence of different compounds. DMSO at the same concentrations was used as a 100% cell viability control. After 48 h, cells were incubated with 5 mg/mL MTT reagent (3-(4,5-dimethyl-2-thiazolyl)-2,5-diphenyl-2-H-tetrazolium bromide) (Sigma-Aldrich Co., St. Louis, MO, USA) for 3.5 h. After that, formazan crystals were dissolved in MTT solvent solution (DMSO/methanol 1:1 v/v), and the absorbance at 560 nm was evaluated using an EPOCH microplate spectrophotometer (BioTek Instruments, Winooski, VT, USA) with the background absorbance at 670 nm subtracted. Each of the 12 compounds (7a–7l) was tested at six different concentrations, ranging from 6.25 to 200 μM in cancer and normal cell lines. Control (carboplatin) was tested at six different concentrations ranging from 25 μM to 800 μM in cancer cells and from 50 μM to 1600 μM in normal cells.\nHalf-maximal inhibitory concentration (IC50) values were obtained from the MTT assay of at least three independent replicates through nonlinear regression analysis using GraphPad Prism 5.0 software (Intuitive Software for Science, San Diego, CA, USA). Data were presented as means ± standard deviation (SD). A log dose–response curve (inhibitor vs response) using the least-squares method was used to determine the IC50 and SD from the data. The selectivity index (SI) was calculated as the ratio between the IC50 in normal cells and the IC50 in cancer cells, obtained by dividing the IC50 of normal cells by the IC50 of cancer cells."}, "[2]": {"system": "C57BL/6 mice", "assay": "Acute toxicity assay in vivo", "conditions": "14 days", "description": "All experiments were performed in accordance with the Brazilian guidelines and regulations. Dosing and analysis were performed according to 423 OECD guidelines and reviewed by ref. . An experimental approach was conducted using experimental groups (n = 3) in which each group received a single dose of 7f (100, 200, or 400 mg/kg). […] Control group animals received only 3% DMSO in PBS vehicle. Animals were examined every day, twice a day, for mortality and morbidity for 14 days, and all animals were sacrificed by cervical dislocation. The animals’ body weight and average food consumption were measured every 7 days. […]\nincreased rear arching, and mobility impairment. The necropsy included an examination of the external characteristics of the carcass; external body orifices; the abdominal, thoracic, and cranial cavities; organs/tissues of liver, thymus, right kidney, right testicle, heart, and lung.\nAnimals upon euthanasia had their organs evaluated for signs of toxicity or morphological […]\nare presented: changes in body weight and food intake, signs of morbidity, possible mortality, and macroscopic alterations in collected organs. Each experimental group consisted of three C57BL/6 mice. The animals were monitored for 14 days, after which they were euthanized and necropsied. […]"}, "[3]": {"system": "SCC-9 cells", "assay": "ROS-Glo H2O2 assay", "type": "cell-based, human", "conditions": "SCC-9, 2 × IC50, 12 and 24 h", "description": "(§1) The production of reactive oxygen species (ROS) was assessed by the detection of hydrogen peroxide (H2O2) using the ROS-Glo H2O2 assay kit (Promega Corporation, Madison, WI, USA; G8820). […] A plate with wells without cells was used as a control. Cells and cell-free wells remained in treatment at times of interest, and 2 h before completion of the times, well volumes were removed to reduce to 40 μL per well. Then the positive control of menadione (Sigma-Aldrich Co., St. Louis, MO, USA), a polycyclic aromatic ketone based on 1,4-naphthoquinone, was used to treat its respective well, and H2O2 substrate from the kit was added for all treatments, followed by the incubation of the plate for the remaining 2 h. Then the detection solution was added, and the plates remained at room temperature for 20 min, following the reading in the TD 20/20 luminometer (Turner Designs, Sunnyvale, CA, USA). The reading of bioluminescence detected is indicated as arbitrary units (a.u.). Additionally, the cell viability was assessed through pretreatment of cells with 10 mM N-acetyl-L-cysteine (NAC) (Sigma-Aldrich Co., St. Louis, MO, USA) for 2 h. […] At the end of the time, the MTT cell viability assay was performed."}, "[4]": {"system": "SCC-9 cells", "assay": "MTT cell viability with N-acetyl-L-cysteine pretreatment", "type": "cell-based, human", "conditions": "SCC-9, 48 h; 7f 1 × IC50, menadione 20 μM", "description": "as §1"}, "[5]": {"system": "SCC-9 cells", "assay": "Cytotoxicity assay (cell death inhibition) with z-VAD-fmk and necrostatin-1", "type": "cell-based", "conditions": "SCC-9, 2 × IC50 7f, 24 h", "description": "This investigation consists of pretreating cells with different death inhibitors. For this assay, day SCC-9 cells were seeded in a 96-well plate, and the next day, they were pretreated for 2 h with 20 μM z-VAD-fmk (ZVAD) (Promega Corporation, Madison, WI, USA) and 20 μM necrostatin-1 (Nec-1) (Sigma-Aldrich Co., St. Louis, MO, USA) alone or in combination. […] The plate was incubated for 24 h, and the result was determined through an MTT cell viability assay. The absorbance was measured with an EPOCH (BioTek Instruments, Winooski, VT, USA) spectrometer at 560 nm."}, "[6]": {"target": "T1, PKM2 (Homo sapiens, UniProt P14618)", "T1 construct": "purchased Sigma-Aldrich Co., St. Louis, MO, USA", "T1 sequence (P14618 whole entry)": "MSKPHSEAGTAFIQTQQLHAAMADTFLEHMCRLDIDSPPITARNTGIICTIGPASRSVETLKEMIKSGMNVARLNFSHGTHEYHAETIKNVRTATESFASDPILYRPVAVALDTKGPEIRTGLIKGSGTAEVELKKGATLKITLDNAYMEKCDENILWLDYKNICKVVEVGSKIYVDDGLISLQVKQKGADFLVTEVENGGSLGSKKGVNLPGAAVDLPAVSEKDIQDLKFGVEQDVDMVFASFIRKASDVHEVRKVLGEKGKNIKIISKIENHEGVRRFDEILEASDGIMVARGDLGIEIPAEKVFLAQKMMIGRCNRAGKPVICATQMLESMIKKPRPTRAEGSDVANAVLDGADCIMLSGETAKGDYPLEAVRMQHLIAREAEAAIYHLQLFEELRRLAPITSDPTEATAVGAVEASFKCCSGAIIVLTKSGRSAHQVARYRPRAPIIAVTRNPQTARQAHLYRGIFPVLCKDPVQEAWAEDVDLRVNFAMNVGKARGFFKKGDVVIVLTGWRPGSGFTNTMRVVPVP", "assay": "LDH-coupled Pyruvate Kinase M2 activity assay", "type": "biochemical", "description": "LDH-coupled Pyruvate Kinase M2 (PKM2) activity assay was performed according to published protocols. For the assay, a pH 7.5 buffer solution composed of 50 mM Tris, 100 mM KCl, and 10 mM MgCl2 was prepared, to which 30 ng of human recombinant PKM2 (Sigma-Aldrich Co., St. Louis, MO, USA), 0.6 mM adenosine diphosphate (ADP), 0.5 mM phosphoenolpyruvate (PEP), 180 μM NADH, 10 μM fructose 1,6-bisphosphate (FBP), and 8 units of LDH were added. PEP was added only right before measurement to start the reaction. The change in absorbance at 340 nm due to oxidation of NADH by LDH was measured from 0 to 30 min using an EPOCH microplate spectrophotometer (BioTek Instruments, Winooski, VT, USA). The activity of PK was defined as % in relation to the indicated control."}, "[7]": {"conditions": "100 mg/kg single intraperitoneal dose"}, "[8]": {"conditions": "200 mg/kg single intraperitoneal dose"}, "[9]": {"conditions": "400 mg/kg single intraperitoneal dose"}},
  "note": "Several values for one entry are separate records, joined by “and”; a condition that tells them apart may be missing. Equal entries are not always repeated.",
  "data": [
    {"smiles": "O=C1C=C(OCc2cn(CCCOc3cc(=O)oc4ccccc34)nn2)C(=O)c2ccccc21", "note": "[Compound 7f, 2-((1-(3-((2-Oxo-2H-chromen-4-yl)oxy)propyl)-1H-1,2,3-triazol-4-yl)methoxy)naphthalene-1,4-dione]", "values": [
      {"measurement": "IC50", "setting": "[1]; Homo sapiens, Fibroblast, MTT, 48 h, normal cells", "result": 22.8, "unit": "µM"},
      {"measurement": "Average SI", "setting": "[1]; average of SI for SCC-9, SCC-4 and SCC-25 versus gingival fibroblast", "result": 2.26},
      {"measurement": "Change in body weight", "setting": "[2]; [7]", "result": "Absent"},
      {"measurement": "Change in food consumption", "setting": "[2]; [7]", "result": "Absent"},
      {"measurement": "Gross Necropsy", "setting": "[2]; [7]", "result": "Absent"},
      {"measurement": "Morbidity", "setting": "[2]; [7]", "result": "Absent"},
      {"measurement": "Change in body weight", "setting": "[2]; [8]", "result": "Absent"},
      {"measurement": "Change in food consumption", "setting": "[2]; [8]", "result": "Absent"},
      {"measurement": "Gross Necropsy", "setting": "[2]; [8]", "result": "Absent"},
      {"measurement": "Morbidity", "setting": "[2]; [8]", "result": "Absent"},
      {"measurement": "Change in body weight", "setting": "[2]; [9]", "result": "Absent"},
      {"measurement": "Change in food consumption", "setting": "[2]; [9]", "result": "Absent"},
      {"measurement": "Gross Necropsy", "setting": "[2]; [9]", "result": "Absent"},
      {"measurement": "Morbidity", "setting": "[2]; [9]", "result": "Absent"},
      {"measurement": "production of hydrogen peroxide (H2O2) / ROS", "setting": "[3]", "result": "significant increase in ROS after 12 and 24 h"},
      {"measurement": "cell viability in the presence of 10 mM N-acetyl-L-cysteine (NAC)", "setting": "[4]", "result": "NAC protected cell death"},
      {"measurement": "cell death after pretreatment with 20 μM z-VAD-fmk (ZVAD)", "setting": "[5]", "result": "significantly attenuated"},
      {"measurement": "cytotoxic effect after pretreatment with 20 μM necrostatin-1 (Nec-1), alone or with ZVAD", "setting": "[5]", "result": "failed to reverse the cytotoxic effect"},
      {"measurement": "PKM2 % of activity relative to control", "setting": "[6]; 0.8 µM 7f, experimental replicates 1-5, LDH-coupled assay, vs DMSO", "result": "96.14% and 81.36% and 72.11% and 97.25% and 76.4557%"},
      {"measurement": "PKM2 % of activity relative to control", "setting": "[6]; 4 µM 7f, experimental replicates 1-5, LDH-coupled assay, vs DMSO", "result": "88.82% and 107.0205% and 91.86% and 99.18%"},
      {"measurement": "remaining activity at 4 µM", "setting": "[6]; 4 µM 7f, experimental replicates 1-5, LDH-coupled assay, vs DMSO, read-out: PKM2 % of activity relative to control", "result": 96.2, "unit": "%"},
      {"measurement": "PKM2 % of activity relative to control", "setting": "[6]; 20 µM 7f, experimental replicates 1-5, LDH-coupled assay, vs DMSO", "result": "87.42% and 68.0203% and 47.4026% and 85.71% and 68.03%"},
      {"measurement": "PKM2 % of activity relative to control", "setting": "[6]; 100 µM 7f, experimental replicates 1-5, LDH-coupled assay, vs DMSO", "result": "42.39% and 13.86% and 46.13% and 34.17% and 45.14%"},
      {"measurement": "IC50", "setting": "[6]; LDH-coupled assay, 0.8 μM to 100 μM, 30 min", "result": 55.1, "unit": "µM"}
    ]}
  ]
}
